Test results reported in ChEMBL document CHEMBL3085629, “Highly functionalized 2-oxopiperazine-based peptidomimetics: an approach to PAR1 antagonists” (2013).
Calls of active or inactive are those of the source. The calls are words filed in the database; no cut-off is given here.

Tests used:
[1] = target: T1, Proteinase-activated receptor 1 (Homo sapiens) (UniProt P25116); assay: Antagonist activity at PAR1 in human platelet rich plasma assessed as inhibition of SFLLRN-induced platelet aggregation at 150 uM after 5 mins by aggregometric analysis relative to control
T1 sequence (whole entry): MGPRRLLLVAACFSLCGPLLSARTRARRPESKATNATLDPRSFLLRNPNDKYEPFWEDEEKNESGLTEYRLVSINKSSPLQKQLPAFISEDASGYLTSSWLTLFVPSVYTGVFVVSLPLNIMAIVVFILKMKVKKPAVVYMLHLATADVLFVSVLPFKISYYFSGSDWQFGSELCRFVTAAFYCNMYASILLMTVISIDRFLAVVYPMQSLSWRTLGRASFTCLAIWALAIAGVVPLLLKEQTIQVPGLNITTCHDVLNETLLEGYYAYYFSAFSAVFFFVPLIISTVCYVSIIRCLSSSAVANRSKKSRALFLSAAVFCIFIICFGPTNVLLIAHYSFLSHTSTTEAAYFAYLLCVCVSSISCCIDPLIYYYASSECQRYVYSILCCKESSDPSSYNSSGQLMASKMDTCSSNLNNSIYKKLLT

A549 = assay: Cytotoxicity against human A549 cells after 48 hrs by sulforhodamine B assay; format: functional; conditions: A549, 48 h
MDA-MB-231 = assay: Cytotoxicity against human MDA-MB-231 cells after 48 hrs by sulforhodamine B assay; format: functional; conditions: MDA-MB-231, 48 h
HT-29 = assay: Cytotoxicity against human HT-29 cells after 48 hrs by sulforhodamine B assay; format: functional; conditions: HT-29, 48 h

| inhibition [1] | Compound | GI50 (A549) [µM] | GI50 (MDA-MB-231) [µM] | GI50 (HT-29) [µM] |
| --- | --- | --- | --- | --- |
| 57% | Cc1c(C)c(S(=O)(=O)/N=C(\N)NCCC[C@H]2C(=O)N(Cc3ccccc3)C[C@@H]([C@H](Cc3ccccc3)NC(=O)NCc3ccccc3)N2Cc2ccccc2)c(C)c2c1OC(C)(C)C2 | – | – | – |
| Active | Cc1c(C)c(S(=O)(=O)/N=C(\N)NCCC[C@H]2C(=O)N(Cc3ccccc3)C[C@@H]([C@H](Cc3c[nH]c4ccccc34)NC(=O)NCc3ccccc3)N2Cc2ccccc2)c(C)c2c1OC(C)(C)C2 | – | – | – |
| Active | Cc1c(C)c(S(=O)(=O)/N=C(\N)NCCC[C@H]2C(=O)N(Cc3ccccc3)C[C@H]([C@H](Cc3c[nH]c4ccccc34)NC(=O)NCc3ccccc3)N2Cc2ccccc2)c(C)c2c1OC(C)(C)C2 | – | – | – |
| Active | Cc1c(C)c(S(=O)(=O)/N=C(\N)NCCC[C@H]2C(=O)N(Cc3ccccc3)C[C@@H]([C@H](Cc3ccccc3)NC(=O)OC(C)(C)C)N2Cc2ccccc2)c(C)c2c1OC(C)(C)C2 | – | – | – |
| Active | Cc1c(C)c(S(=O)(=O)/N=C(/N)NCCC[C@H]2C(=O)N(Cc3ccccc3)C[C@@H](CCc3ccccc3)N2Cc2ccccc2)c(C)c2c1OC(C)(C)C2 | – | – | – |
| – | Cc1c(C)c(S(=O)(=O)/N=C(/N)NCCC[C@H]2C(=O)NC[C@H]([C@H](Cc3ccccc3)NC(=O)OC(C)(C)C)N2Cc2ccccc2)c(C)c2c1OC(C)(C)C2 | 1.24 | 6.83 | 5.26 |
| – | Cc1c(C)c(S(=O)(=O)/N=C(/N)NCCC[C@H]2C(=O)NC[C@H]([C@H](Cc3cn(C(=O)OC(C)(C)C)c4ccccc34)NC(=O)OC(C)(C)C)N2Cc2ccccc2)c(C)c2c1OC(C)(C)C2 | 4.89 | 4.44 | 3.78 |
| inactive | CC(C)(C)OC(=O)NCCCC[C@H]1C(=O)NC[C@H]([C@H](Cc2cn(C(=O)OC(C)(C)C)c3ccccc23)NC(=O)OC(C)(C)C)N1Cc1ccccc1 | 4.86 | 2.92 | 4.58 |
| Active | Cc1c(C)c(S(=O)(=O)/N=C(\N)NCCC[C@H]2C(=O)N(Cc3ccccc3)C[C@H]([C@H](Cc3ccccc3)NC(=O)OC(C)(C)C)N2CC(=O)OC(C)(C)C)c(C)c2c1OC(C)(C)C2 | – | – | – |
| Active | Cc1c(C)c(S(=O)(=O)/N=C(/N)NCCC[C@H]2C(=O)N(Cc3ccccc3)C[C@@H]([C@H](Cc3cn(C(=O)OC(C)(C)C)c4ccccc34)NC(=O)OC(C)(C)C)N2Cc2ccccc2)c(C)c2c1OC(C)(C)C2 | – | – | – |
| – | Cc1c(C)c(S(=O)(=O)/N=C(/N)NCCC[C@H]2C(=O)NC[C@@H]([C@H](Cc3ccccc3)NC(=O)OC(C)(C)C)N2Cc2ccccc2)c(C)c2c1OC(C)(C)C2 | 5.39 | 6.04 | 3.29 |
| inactive | CC(C)(C)OC(=O)CN1[C@@H](CCCCNC(=O)OC(C)(C)C)C(=O)NC[C@H]1[C@H](Cc1cn(C(=O)OC(C)(C)C)c2ccccc12)NC(=O)OC(C)(C)C | 8.6 | 6.72 | 5.78 |
| Active | Cc1c(C)c(S(=O)(=O)/N=C(/N)NCCC[C@H]2C(=O)N(Cc3ccccc3)C[C@@H](CCc3cn(C(=O)OC(C)(C)C)c4ccccc34)N2Cc2ccccc2)c(C)c2c1OC(C)(C)C2 | – | – | – |
| Active | Cc1c(C)c(S(=O)(=O)/N=C(\N)NCCC[C@H]2C(=O)N(Cc3ccccc3)C[C@H]([C@H](Cc3ccccc3)NC(=O)NCc3ccccc3)N2Cc2ccccc2)c(C)c2c1OC(C)(C)C2 | – | – | – |
| Active | Cc1c(C)c(S(=O)(=O)/N=C(/N)NCCC[C@H]2C(=O)N(Cc3ccccc3)C[C@H](CCc3ccccc3)N2Cc2ccccc2)c(C)c2c1OC(C)(C)C2 | – | – | – |
| inactive | CC(C)(C)OC(=O)NCCCC[C@@H]1N[C@H]([C@H](Cc2cn(C(=O)OC(C)(C)C)c3ccccc23)NC(=O)OC(C)(C)C)CNC1=O | 9.75 | 5.31 | 5.43 |
| Active | Cc1c(C)c(S(=O)(=O)/N=C(/N)NCCC[C@H]2C(=O)N(Cc3ccccc3)C[C@H](CCc3cn(C(=O)OC(C)(C)C)c4ccccc34)N2Cc2ccccc2)c(C)c2c1OC(C)(C)C2 | – | – | – |

| inhibition [1] | Compound | GI50 (A549) [µM] | GI50 (MDA-MB-231) [µM] | GI50 (HT-29) [µM] |
| --- | --- | --- | --- | --- |
| inactive | CC(C)(C)OC(=O)NCCCC[C@H]1C(=O)NC[C@@H]([C@H](Cc2cn(C(=O)OC(C)(C)C)c3ccccc23)NC(=O)OC(C)(C)C)N1Cc1ccccc1 | 5.56 | 4.58 | 4.45 |
| inactive | CC(C)(C)OC(=O)NCCCC[C@@H]1N[C@@H]([C@H](Cc2cn(C(=O)OC(C)(C)C)c3ccccc23)NC(=O)OC(C)(C)C)CNC1=O | > 10 | 5.56 | 5.43 |
| – | COc1cccc2c1C(=O)c1c(O)c3c(c(O)c1C2=O)C[C@@](O)(C(=O)CO)C[C@@H]3O[C@H]1C[C@H](N)[C@H](O)[C@H](C)O1 [DOXORUBICIN] | 0.07 | 0.09 | 0.1 |
| Active | Cc1c(C)c(S(=O)(=O)/N=C(/N)NCCC[C@H]2C(=O)N(Cc3ccccc3)C[C@H]([C@H](Cc3cn(C(=O)OC(C)(C)C)c4ccccc34)NC(=O)OC(C)(C)C)N2CC(=O)OC(C)(C)C)c(C)c2c1OC(C)(C)C2 | – | – | – |
| Active | Cc1c(C)c(S(=O)(=O)/N=C(\N)NCCC[C@H]2C(=O)N(Cc3ccccc3)C[C@H]([C@H](Cc3ccccc3)NC(=O)OC(C)(C)C)N2Cc2ccccc2)c(C)c2c1OC(C)(C)C2 | – | – | – |
| Active | Cc1c(C)c(S(=O)(=O)/N=C(\N)NCCC[C@H]2C(=O)N(Cc3ccccc3)C[C@@H]([C@H](Cc3ccccc3)NC(=O)OC(C)(C)C)N2CC(=O)OC(C)(C)C)c(C)c2c1OC(C)(C)C2 | – | – | – |
| – | Cc1c(C)c(S(=O)(=O)/N=C(/N)NCCC[C@H]2C(=O)NC[C@H]([C@H](Cc3cn(C(=O)OC(C)(C)C)c4ccccc34)NC(=O)OC(C)(C)C)N2CC(=O)OC(C)(C)C)c(C)c2c1OC(C)(C)C2 | 3.25 | 4.54 | 4.98 |
| inactive | CC(C)(C)OC(=O)NCCCC[C@H]1C(=O)N(Cc2ccccc2)C[C@H]([C@H](Cc2cn(C(=O)OC(C)(C)C)c3ccccc23)NC(=O)OC(C)(C)C)N1Cc1ccccc1 | > 10 | 3.33 | > 10 |
| inactive | CC(C)(C)OC(=O)CN1[C@@H]([C@H](Cc2cn(C(=O)OC(C)(C)C)c3ccccc23)NC(=O)OC(C)(C)C)CNC(=O)[C@@H]1CCCCNC(=O)OC(C)(C)C | 4.57 | 2.29 | 3.09 |
| inactive | CC(C)(C)OC(=O)NCCCC[C@H]1C(=O)N(Cc2ccccc2)C[C@@H]([C@H](Cc2cn(C(=O)OC(C)(C)C)c3ccccc23)NC(=O)OC(C)(C)C)N1Cc1ccccc1 | > 10 | 1.48 | 3.83 |
| – | Cc1c(C)c(S(=O)(=O)/N=C(/N)NCCC[C@H]2C(=O)NC[C@@H]([C@H](Cc3cn(C(=O)OC(C)(C)C)c4ccccc34)NC(=O)OC(C)(C)C)N2Cc2ccccc2)c(C)c2c1OC(C)(C)C2 | 5.55 | 4.55 | 3.78 |
| Active | Cc1c(C)c(S(=O)(=O)/N=C(/N)NCCC[C@H]2C(=O)N(Cc3ccccc3)C[C@H]([C@H](Cc3cn(C(=O)OC(C)(C)C)c4ccccc34)NC(=O)OC(C)(C)C)N2Cc2ccccc2)c(C)c2c1OC(C)(C)C2 | – | – | – |
| – | Cc1c(C)c(S(=O)(=O)/N=C(/N)NCCC[C@H]2C(=O)NC[C@@H]([C@H](Cc3cn(C(=O)OC(C)(C)C)c4ccccc34)NC(=O)OC(C)(C)C)N2CC(=O)OC(C)(C)C)c(C)c2c1OC(C)(C)C2 | 7.68 | 4.87 | 2.92 |
| Active | Cc1c(C)c(S(=O)(=O)/N=C(/N)NCCC[C@H]2C(=O)N(Cc3ccccc3)C[C@@H]([C@H](Cc3cn(C(=O)OC(C)(C)C)c4ccccc34)NC(=O)OC(C)(C)C)N2CC(=O)OC(C)(C)C)c(C)c2c1OC(C)(C)C2 | – | – | – |
| inactive | CC(C)(C)OC(=O)CN1[C@@H](CCCCNC(=O)OC(C)(C)C)C(=O)N(Cc2ccccc2)C[C@H]1[C@H](Cc1cn(C(=O)OC(C)(C)C)c2ccccc12)NC(=O)OC(C)(C)C | – | – | – |
| inactive | CC(C)(C)OC(=O)CN1[C@@H]([C@H](Cc2cn(C(=O)OC(C)(C)C)c3ccccc23)NC(=O)OC(C)(C)C)CN(Cc2ccccc2)C(=O)[C@@H]1CCCCNC(=O)OC(C)(C)C | > 10 | 1.56 | 4.44 |
